Assay results reported in a melting point compilation (Tetko et al.; mined from patent text by program, amines drawn as free bases though some values may be those of a salt).

melting point [°C]	SMILES
214	Cc1ccc2c(c1)c(N1CCN(C(=O)c3cccs3)CC1)c(C#N)c(=O)n2C
88.5 to 102	CCCCCN(CCC12CC3CC(CC(C3)C1)C2)C(=O)NCc1cccnc1
116 to 118	COc1cc(Br)c(O)c([N+](=O)[O-])c1
280 to 281	CCCc1c(OCC(O)COc2ccc3c(=O)cc(C(=O)O)sc3c2CCC)ccc(C(C)=O)c1O (stereo not drawn)
96 to 98	CC(C)Cc1cc(-c2cccc(C=O)c2)c(S(=O)(=O)NC(C)(C)C)s1
125	CN(C(=O)C(C)(C)C)C1(c2ccccc2)CCNCC1
58 to 61	CCNC(=O)c1sc(SC)cc1[Si](C)(C)C
63 to 75	COc1cccc(CNc2nccc(-c3cc(N4CCN(CCCN5CCCCC5)CC4)c4cc(OC)ccc4c3)n2)c1
170 to 172	COc1cc(Nc2nc3cccc(-c4cccc(NC(C)=O)c4)c3o2)cc(OC)c1OC
176 to 179	CC(C)(C)OC(=O)N1CCN(c2ccc3ncc(Br)n3n2)CC1
91 to 93	CC(C)(C)OC(=O)c1ccc2[nH]ccc2c1
97.5 to 98.5	CCOc1cc(Cc2ccccn2)ccc1CCCOc1c(CC(=O)O)cccc1OC
88 to 105	COc1cc2c(cc1Nc1ncc(Cl)c(Nc3ccccc3S(=O)(=O)C(C)C)n1)CCN(CC(=O)N1CCCC1)CC2
66 to 68	CCCCSCC(=O)c1cc2c(cc1Cl)n(C)c(=O)n2C
272 to 274	O=C(O)c1ccc(NC(=O)C(c2ccc(Cl)cc2)c2ccc(Cl)cc2)cc1
130 to 132	COc1cccc2c(C3CCN(C(=O)OC(C)(C)C)CC3)noc12
237	CC1(C)CCc2c(N3CCSCC3)nc3sc4c(NCc5ccncc5)ncnc4c3c2C1
190	Cc1ccc2c(c1)c1cc(C(=O)c3ccccc3C(=O)O)ccc1n2CCC#N
104 to 107	CCn1c(-c2ccc(OC)c(OC)c2)cc(=O)n(CC)c1=O
163 to 164	Cc1ccc(-n2nc(C(C)(C)C)cc2NC(=O)c2cccc3cc(Oc4cc(Cl)ncn4)ccc23)cc1
95.2 to 95.6	COc1ccc2ccccc2c1CC#N
120 to 122	CC1C(=O)Oc2c1cccc2S(=O)c1ccccc1Cl (stereo not drawn)
286 to 288	CCc1c2c(nn1CC)c(N)nc1ncccc12
74 to 76	COC(=O)C(C)(C)Cc1ccc(CC(C)(C)C(=O)OC)cc1
131 to 132	CC(C)(C)OC(=O)CNC(=S)Nc1cccc(C#N)c1

melting point [°C]	SMILES
127 to 129	O=C(c1ccccc1)N1CC(c2ccccc2)c2ccccc21 (stereo not drawn)
143 to 145	N#Cc1cccnc1N1CCN(CC(=O)Nc2cccc([N+](=O)[O-])c2)CC1
105 to 106	CC(C)(C)OC(=O)N1C(=O)[C@H](O)[C@@H]1CC1CCCCC1
171 to 174	NC(=O)c1cc(Cl)c(Sc2ccc(Cl)cc2)c(Cl)c1
201	O=[N+]([O-])C=C1NCCN1c1ccc(Cl)nc1
246	CC1(CCc2ccc(O)c(C(C)(C)C)c2)NC(=O)NC1=O (stereo not drawn)
176	CC(=NNc1ccc([N+](=O)[O-])cc1)N1CCOCC1
150 to 151	O=C(NCCCCCOc1ccc(-n2ccnc2)cc1)c1ccc(Br)cc1
137 to 141	Cc1noc([C@@]2(C)CC[C@@H](NCC(=O)N3C[C@@H](F)C[C@H]3C#N)C2(C)C)n1
132 to 134	COC(=O)c1cc(Cl)cc(C=O)c1O
182	CC(=O)NC(=O)Nc1ccc(OS(=O)(=O)c2cccc(C(F)(F)F)c2)cc1N
38.5 to 40	CCC(C(=O)N(C)C)n1ccc(-c2ccccc2Cl)n1 (stereo not drawn)
83 to 89	CN(C)CCCCCNC(=O)c1ccc(-c2nnc(CSCCOc3ccccc3)o2)cc1
164 to 165	CCC(=O)Nc1ccc2oc3c(c2c1)CCCC3
75 to 76	CCCSc1sc(C(=O)NC)c2c1-c1c(cnn1CC(F)(F)F)CC2
86 to 92	CN(CCCNc1ncc(Cc2ccc(Cl)c(Cl)c2)c(=O)[nH]1)c1ccccn1
54 to 55	O=Cc1cc2ccccc2nc1N1CCN(CC2CCCCC2)CC1
188 to 189	CCS(=O)(=O)Nc1cc(-c2ncnc(NOC)c2Cl)c(F)cc1C#N
86	CCN1CC2CCCC2C1=C[N+](=O)[O-] (stereo not drawn)
309 to 311	O=C(O)c1ccc(COCc2csc3nc(C(=O)NCc4cccnc4)[nH]c(=O)c23)cc1
26 to 28	COCCCNc1ccc([N+](=O)[O-])cc1C
180 to 182	COc1cc2c(cc1OC)-c1c(OC)c(OC)cc3c1C(C2)N(C)CC3O (single isomer, unassigned; (+))
154 to 156	CCOC(=O)c1cn(CC)c2cc(C3CCCCC3)c(OC)cc2c1=O
52 to 54	COC(=O)Cc1cccc(C(=O)c2ccccc2)c1N
78 to 80	CC(=O)NC[C@H]1CN(c2ccc(N3CCC4(CC3)CC4=S=O)c(F)c2)C(=O)O1

melting point [°C]	SMILES
115 to 116	Clc1cc(Cl)c2nc(SCc3ccccc3)nn2c1
143 to 145	CCOC(=O)N1Cc2c(n(-c3ccc(F)cc3)c3ccc(F)cc23)C1
166 to 167	O=C(O)c1ccsc1Cl
50 to 54	CCCCCCCCCCCCCCCc1ccc(C=O)c(O)c1
73	CCCCNc1nc(N)nc(NCCCC)n1
134 to 137	CC(C)CC(CN(C)C)(C(=O)O)C(=O)O
147 to 148	c1ccc(N2CCN(CC[C@H]3CC[C@H](c4c[nH]c5ccccc54)CC3)CC2)nc1
193	COc1ccc(C2CCCCC2)cc1-c1csc(NC(=O)C2CCN(C(=O)OC(C)(C)C)CC2)n1
113 to 114	COC(=O)CCCc1cc2nc(OC)ccc2n1S(=O)(=O)c1ccccc1
140 to 142	CNC(=O)n1nc(Oc2c(Cl)cc(C(F)(F)F)cc2[N+](=O)[O-])cc1C
293 to 294	COc1ccc(-c2[nH]c3cn[nH]c(=O)c3c2Cl)cc1OC1CC1
197 to 198	CCOC(=O)Cc1c(C(=O)O)c(C)c(C(=O)c2ccc(Cl)cc2)n1C
157	CC(C)(C)NS(=O)(=O)c1ccc(Cl)c(CBr)c1Cl
121 to 124	CCN(C)C(=O)C1=CC(C)(C)Oc2ccc([N+](=O)[O-])cc21
> 300	NCc1cccc(OCCSc2nc[nH]n2)c1
104 to 106	COc1ccc(CCc2nc(Br)c(C(F)(F)F)[nH]2)cc1
217 to 219	Cc1ccc2ccc(C(=O)O)c(O)c2n1
165 to 170	O=Cc1cc(-c2ccccc2)c2ccc3c(-c4ccccc4)cc(C=O)nc3c2n1
144 to 145	COc1cc(COc2nn(Cc3ccccc3)cc2C(C)=O)ccc1OCc1nc(-c2ccco2)oc1C
106 to 108	CCOC(=O)C1=C(C)OC(=O)C1=C(C)O
156 to 163	Cc1nc(Nc2ccc(F)c(Cl)c2)c2nc(N3CCC(N)CC3)ncc2n1
157 to 159	CCc1nnc2c(N(C(C)=O)C(C)=O)nc3ccccc3n12
127 to 129	CCN(CC)C(=O)c1ccc(C)c(-c2nc(SC)nc3c2CNC(=O)N3c2c(F)cccc2F)c1
137 to 138	COCC1CN(c2ccc3nc(C(O)CCCO)sc3c2)C(=O)O1 (stereo not drawn)
193 to 195	O=c1c(Cl)c(CCl)nc2scnn12

melting point [°C]	SMILES
175 to 178	CCOC(=O)C1=C(C)NC(C)=C(C(=O)OCC)C1c1ccccc1C=CC(=O)O
> 260	O=C(c1ccc(Cl)cc1)c1cnc2ccc(Cl)cc2c1O
125 to 126	S=C1Nc2c(Cl)cccc2CS1
220 to 222	COCc1c(CO)ncc2[nH]c3cccc(Cc4ccc(Cl)cc4)c3c12
263 to 268	COc1ccc2nc(NC(=O)C(CC3CCCC3)c3ccc(S(=O)(=O)NCc4cccs4)cc3)sc2n1 (stereo not drawn)
> 230	Nc1ccc(-c2nc3c(O)cccc3c(=O)[nH]2)cc1
124	CN(Cc1ccc(C2=NCCN2C(=O)OC(C)(C)C)cc1)C(=O)OCc1ccccc1
167 to 169	O=C(O)CN1CC2(CCCCC2)N(c2ccccc2)CC1=O
55 to 58	Cc1ccc(C(c2ccccc2)C(O)CN(C)C)cc1 (stereo not drawn)
44 to 46	COCC(C)N(C(=O)CCl)c1c(C)cccc1C (stereo not drawn)
144 to 149	O=C(O)c1ccc(Cl)c2c1CCNCC2
98 to 100	C=Cc1ccc2c(c1)CC(CNC(=O)OC(C)(C)C)CC2 (stereo not drawn)
78 to 80	CC(S(N)(=O)=O)S(=O)(=O)N1CCCC1 (stereo not drawn)
172 to 174	CCn1cc(-c2ccc([C@H](C)N3CC[C@](CC(C)(C)O)(c4ccc(F)cc4)OC3=O)cc2)ccc1=O
76	CCON=C(CC)C1=C(O)CC(c2cccc3sccc23)CC1=O (stereo not drawn)
85 to 87	CCC(=O)NCC[C@@H]1CCc2cc(Br)c(O)c(CCO)c21
72	Nc1ccc(C(=O)CCCCOCc2ccccc2)cc1
43 to 45	COC[C@H]1CN(c2ccc([C@H]3CC[C@H](OCC#N)CC3)cc2)C(=O)O1
197 to 200	CS(=O)(=O)NCCCC1COCc2nc3c(N)nc4c(c3n21)CCCC4 (stereo not drawn)
284	CCn1cc(C(=O)O)c(=O)c2cc3cc(F)c(N4CCNC(c5cccc(F)c5)C4)cc3nc21 (racemic)
82 to 83	COc1cc(COC(=O)NCCN2CCOCC2)ccc1OC(C)=O
128 to 130	Cc1nc2c(s1)CN=C(c1ccccc1)c1cc(Cl)ccc1-2

SMILES	melting point [°C]
CC(C)N1C(=O)C(N=[N+]=[N-])N=C(c2ccccc2)c2ccccc21 (stereo not drawn)	178 to 179
CC(=O)N(C)c1cccc(-c2ccnc3c(C(=O)c4ccco4)cnn23)c1	210 to 212
CC(Cc1ccc(C2=NNC(=O)CC2)cc1)NCC(O)c1cccc(Cl)c1 (stereo not drawn)	49 to 50
C=C1CC2(C)C(O)CCC2C2C(C)CC3=CC(=O)CCC3C12 (stereo not drawn)	138 to 139
C[C@H]1NC(C)(C)CO[C@]1(O)c1cccc(Cl)c1	128 to 131
CCCNC(=O)N(CC(=O)OCC)CC1CC2c3cccc4[nH]cc(c34)CC2N(C)C1 (stereo not drawn)	109 to 110
